Entries after “also recorded” stand apart in the source; their conditions may differ.
Legend:
Type in all cases: cell-based, human
NQO1 mRNA = NQO1 mRNA expression by TaqMan real-time PCR in skin fibroblast cell models
Excerpt: (§1) Total cellular RNA is isolated using Genelute Mammalian Total RNA Kit (Sigma-Aldrich) according to the manufacturer's instructions. […] Standard curves are constructed with serial dilutions of control sample and analyzed using ABI software. Data are normalized against a house keeping gene, 18S ribosomal RNA. Gene expression is quantified by ^ΔΔCt method where fold of induction=2^-ΔΔ[…]., Analysis of relative gene expression data using real-time quantitative PCR and the 2(-Delta Delta C(T)) Method. Methods 2001. 25, 402-408).

GST mRNA = GST mRNA expression by TaqMan real-time PCR in skin fibroblast cell models
Excerpt: as §1

UGT mRNA = UGT mRNA expression by TaqMan real-time PCR in skin fibroblast cell models
Excerpt: as §1

NQO1 = NQO1 protein expression by immunoblotting in skin fibroblast cell models; settings: 24 h
Procedure: (§2) Treated and control cells are washed twice with ice cold phosphate buffered saline (PBS) and then incubated for 30 min in the Nonidet P-40 (NP-40) buffer (20 mM Tris-HCl, pH 8, 150 mM NaCl, 10% glycerol, 1% NP-40) containing one tablet of complete mini-EDTA-free protease inhibitor cocktail (Roche) in 10 ml buffer. Cells are harvested by scraping and the homogenate is centrifuged at 13,684 g at 4° C. for 15 min. The supernatants are collected and frozen at −80° C. The protein concentrations are determined using Bradford reagent (Sigma) according to the manufacturer's instructions. 20 μg of protein lysate is resolved by 10% SDS-polyacrylamide gel and transferred onto polyvinylidenedifluoride membranes (Bio-Rad) with a semidry transfer cell (Trans-Blot; Bio-Rad). Membranes are blocked for 1 hour at room temperature or overnight at 4° C. with Marvel fat-free milk powder (5% w/v), Tween 20 (0.05%, v/v) in PBS. Proteins of interest are visualized by exposing membranes to primary antibodies in milk for 2 hours at room temperature. Dilutions of antibodies are rabbit polyclonal GSTA1, 1:2000, goat polyclonal NQO1 1:1000 and goat polyclonal UGT1A 1:1000. Following primary antibody incubation membranes are incubated with suitable HRP-conjugated secondary antibody and signals are detected using an enhanced chemiluminescence kit (GE Healthcare) according to manufacturer's instructions. β-actin level is determined as loading control and bands are visualized using Fujifilm LAS3000 Imager.

GST (GSTA1) = assay: GST protein expression by immunoblotting in skin fibroblast cell models; settings: 24 h
Procedure: as §2

UGT (UGT1A) = assay: UGT protein expression by immunoblotting in skin fibroblast cell models; settings: 24 h
Procedure: as §2

[1] = 1 month old cell model, 5, 10, 20 μM
[2] = 1 month old cell model, control=1
[3] = cell model, all concentrations tested
[4] = adult cell model, highest concentration (20 μM), control=1

Molecule | NQO1 mRNA expression relative to control (NQO1 mRNA; [1]) | upregulation of GST mRNA compared to control (GST mRNA; [2]) [fold] | GST mRNA expression relative to control (GST mRNA; adult cell model, 5, 10, 20 μM) | UGT mRNA expression relative to control (UGT mRNA; adult cell model, 5, 10, 20 μM) | NQO1 protein expression (immunoblot, ratio to beta-actin) (NQO1; adult cell model, higher dose) | GST protein expression (immunoblot, ratio to beta-actin) (GST (GSTA1); adult cell model, 5, 10, 20 μM) | NQO1 mRNA expression relative to control (NQO1 mRNA; adult cell model, 5, 10, 20 μM) | NQO1 mRNA expression relative to control (NQO1 mRNA; infant cell models) | GST mRNA expression relative to control (GST mRNA; infant cell models) | NQO1 protein expression (immunoblot, ratio to beta-actin) (NQO1; cell model, higher doses) | GST protein expression (immunoblot, ratio to beta-actin) (GST (GSTA1); cell model, higher doses) | UGT protein expression (immunoblot, ratio to beta-actin) (UGT (UGT1A); cell model, higher doses) | other results
O=c1c(O)c(-c2ccc(O)c(O)c2)oc2cc(O)cc(O)c12 [quercetin] | significantly increased | 3.9 | significant dose-dependent increase | significant dose-dependent increase | significant upregulation | increases |  |  |  |  |  |  | upregulation of NQO1 mRNA compared to control (NQO1 mRNA; [2]): 7.2 fold; NQO1 mRNA expression relative to control (NQO1 mRNA; [3]): do not demonstrate any significant changes; GST mRNA expression relative to control (GST mRNA; [1]): significantly increased; upregulation of GST mRNA (GST mRNA; [4]): 7.4 fold; GST mRNA expression relative to control (GST mRNA; [3]): do not demonstrate any significant changes; upregulation of UGT mRNA (UGT mRNA; [4]): 5.5 fold; UGT mRNA expression relative to control (UGT mRNA; [3]): do not demonstrate any significant changes
C[S+]([O-])CCCCN=C=S (stereo not drawn) [sulforaphane, 4-methylsulfinylbutyl isothiocyanate] |  |  | significant increase | significant increase |  |  | significant increase | significant increases | significantly increased; also recorded: significant increases | significantly upregulated | significantly upregulated | significantly upregulated | increase in NQO1 mRNA compared to control (NQO1 mRNA; infant cell models, control=1): 6-35 fold; NQO1 protein expression (immunoblot, ratio to beta-actin) (NQO1; adult cell model, 5, 10, 20 μM): significant upregulation; UGT protein expression (immunoblot, ratio to beta-actin) (UGT (UGT1A); [1]): significant induction; UGT protein expression (immunoblot, ratio to beta-actin) (UGT (UGT1A); adult cell model, 5, 10, 20 μM): affected
catechin | unaffected | 3.7 | dose-response upregulation | an increase | significant upregulation | increases | dose-response upregulation | significant increases | significant increases | significantly upregulated | significantly upregulated | significantly upregulated | increase in NQO1 mRNA expression (NQO1 mRNA; cell model, control=1): 4.5 fold; UGT mRNA expression relative to control (UGT mRNA; [1]): unaffected

— patent publication US20130095189A1, “COMPOSITION AND METHOD OF PHYTONUTRIENTS FOR METABOLIC PROGRAMMING EFFECTS” (priority 2011, published 2013)
